The test deals with T1, MAT2A (Homo sapiens, UniProt P31153).
T1 construct: purchased BPS Bioscience (USA) 71401
T1 sequence (P31153 whole entry): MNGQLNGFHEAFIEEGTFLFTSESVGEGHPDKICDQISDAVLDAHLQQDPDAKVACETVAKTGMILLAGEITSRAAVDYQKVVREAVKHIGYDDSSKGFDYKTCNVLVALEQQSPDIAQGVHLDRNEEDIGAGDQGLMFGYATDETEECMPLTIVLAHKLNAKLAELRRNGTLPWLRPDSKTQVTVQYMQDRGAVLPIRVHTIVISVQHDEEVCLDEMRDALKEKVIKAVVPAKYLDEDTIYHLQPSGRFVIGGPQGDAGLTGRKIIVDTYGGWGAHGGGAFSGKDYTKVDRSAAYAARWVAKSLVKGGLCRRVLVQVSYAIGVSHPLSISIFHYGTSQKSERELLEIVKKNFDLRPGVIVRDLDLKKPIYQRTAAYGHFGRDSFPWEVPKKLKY
As to the kind of experiment: MAT2A inhibitory activity, colorimetric phosphate detection (PiColorLock) enzyme assay. The note with it: Test Condition 1 or 2 (not stated which per compound); absorbance at 630 nm. The test is classed as biochemical. The procedure:
In vitro assay: Methionine and adenosine triphosphate (ATP) are converted into S-adenosylmethionine (SAM) and inorganic phosphate (pi) via the catalytic action of methionine adenosyltransferase 2A (MAT2A). The produced pi is detected by the PiColorLock™ Phosphate Detection Reagent, which is a colorimetric assay, and the activity of MAT2A can be evaluated according to the amount of pi generated during the enzyme reaction. Each compound was evaluated under Test Condition 1 or 2 as described below.
• Concentration of MAT2A inhibitor: maximum concentration of 50 µM, 5-fold dilution (7 groups in total) • MAT2A concentration: 12 ng/µL • ATP and Met concentration: 100 µM, 80 µM
• Concentration of MAT2A inhibitor: maximum concentration of 1 µM, 3-fold dilution (7 groups in total) • MAT2A concentration: 4 ng/µL • ATP and Met concentration: 300 µM, 150 µM • Reagents: Methionine (catalog number M5308) and ATP (catalog number A2383) were purchased from Sigma-Aldrich (USA). MAT2A (catalog number 71401) was purchased from BPS Bioscience (USA), and PiColorLock™ Phosphate Detection Reagent (catalog number 303-0030) was purchased from Novus (USA).
Assay buffer composition: 50 mM Tris-HCl pH 8.0, 50 mM KCI, 15 mM MgCl2, 0.3 mM EDTA, 0.005 % (w/v) BSA
Experimental procedure: Each compound was diluted 5-fold or 3-fold based on the maximum concentration (5 mM or 1 mM or 0.1 mM) using DMSO. The diluted compounds were diluted 20-fold using assay buffer, and then mixed at a volume ratio of 1:2 with MAT2A (30 ng/µL or 10 ng/µL) diluted with assay buffer and treated for 30 minutes at room temperature. The negative control group is a group untreated with both the MAT2A enzyme and the compound according to an embodiment of the present application, and the positive control group is a group treated only with the MAT2A enzyme and untreated with the compound according to an embodiment of the present application.
In each well of a 384-well plate, 30 µL of the mixed solution and 20 µL of a 1:1 mixed solution of ATP (0.5 mM or 1.5 mM) and Met (0.4 mM or 0.75 mM) were mixed and then treated for 1 hour at room temperature. After the enzyme reaction, 13 µL of a 100:1 mixed solution of PiColorLockTM and Accelerator was treated in each well and reacted for 5 minutes at room temperature. After treating 5 µL of Stabilizer in each well and reacting for 25 minutes at room temperature, the absorbance at 630 nm was measured using SpectraMax M4 (Molecular Devices, USA) to calculate the IC50 value of the compound.
Analysis method: The enzyme activity (%) of each experimental group was calculated as {(average O.D. of compound-treated group - average O.D. of negative control group)/(average O.D. of positive control group - average O.D. of negative control group)} * 100. After preparing a dose-response curve (4-parameter) using the enzyme activity according to the treatment concentration of each compound in GraphPad Prism 9, the 50 % of enzyme inhibitory activity value (IC50) was calculated through non-linear regression analysis. The IC50 results measured for the MAT2A activity inhibitory ability of the compounds according to an embodiment of the present application are shown in Table 2 (+++: more than 1 to 100 nM, ++: more than 100 to 1,000 nM, +: more than 1,000 to 10,000 nM, -: more than 10,000 nM).
As to `Cc1ncccc1-n1c(=O)c2nccn2c2cc(Cl)c(Br)cc21` (atropisomer, axis not shown; (Ra)) [Example 80, (Ra)-7-bromo-8-chloro-5-(2-methylpyridin-3-yl)imidazo[1,2-a]quinoxalin-4(5H)-one], the 50% inhibitory concentration (IC50) (as a rule, the midpoint of a concentration-inhibition curve) was more than 10 µM.

`Cc1cc2c(cc1C(F)(F)F)n(-c1cccnc1C)c(=O)c1nccn12` (atropisomer, axis not shown; (Ra)) [Example 94, (Ra)-8-methyl-5-(2-methylpyridin-3-yl)-7-(trifluoromethyl)imidazo[1,2-a]quinoxalin4(5H)-one] registered an IC50 of more than 10 µM.

`Cc1ncccc1-n1c(=O)c2nccn2c2cc(Cl)c(C(F)(F)F)cc21` (atropisomer, axis not shown; (Ra)) [Example 97, (Ra)-8-chloro-5-(2-methylpyridin-3-yl)-7-(trifluoromethyl)imidazo[1,2-a]quinoxalin-4(5H)-one] came in with a half-inhibitory concentration (IC50) of more than 10 µM.

Turning to `CCc1ncccc1-n1c(=O)c2nccn2c2cc(Cl)c(C(F)(F)F)cc21` (atropisomer, axis not shown; (Ra)) [Example 111, (Ra)-8-chloro-5-(2-ethylpyridin-3-yl)-7-(trifluoromethyl)imidazo[1,2-a]quinoxalin-4(5H)-one], the IC50 was more than 10 µM.

As to `O=c1c2nccn2c2ccc(Cl)cc2n1-c1ccccc1F` [Example 12, 7-chloro-5-(2-fluorophenyl)imidazo[1,2-a]quinoxalin-4(5H)-one], the half-maximal inhibitory concentration (IC50) was more than 10 µM.

In turn, `Cc1c(F)cccc1-n1c(=O)c2nccn2c2ccc(OCC(F)(F)F)cc21` [Example 29, 5-(3-fluoro-2-methylphenyl)-7-(2,2,2-trifluoroethoxy)imidazo[1,2-a]quinoxalin-4(5H)-one] showed an IC50 of more than 10 µM.

In the case of `CCOc1ccc2c(c1)n(-c1cccc(F)c1C)c(=O)c1nccn12` [Example 31, 7-ethoxy-5-(3-fluoro-2-methylphenyl)imidazo[1,2-a]quinoxalin-4(5H)-one], the half-inhibitory concentration (IC50) is more than 10 µM.

`Cc1ccccc1-n1c(=O)c2nccn2c2ccc(F)cc21` [Example 41, 7-fluoro-5-(o-tolyl)imidazo[1,2-a]quinoxalin-4(5H)-one]: the IC50 lay in the range of 1 to 10 µM.

The molecule `Cc1ccccc1-n1c(=O)c2nccn2c2cnc(Cl)cc21` [Example 42, 3-chloro-5-(o-tolyl)imidazo[1,2-a]pyrido[4,3-e]pyrazin-6(5H)-one] registered an IC50 of more than 10 µM.

With `N#Cc1ccccc1-n1c(=O)c2nccn2c2ccc(Cl)cc21` [Example 43, 2-(7-chloro-4-oxoimidazo[1,2-a]quinoxalin-5(4H)-yl)benzonitrile], the half-inhibitory concentration (IC50) is more than 10 µM.

The molecule `CS(=O)(=O)Nc1cccc(-n2c(=O)c3nccn3c3ccc(Cl)cc32)c1` [Example 44, N-(3-(7-chloro-4-oxoimidazo[1,2-a]quinoxalin-5(4H)-yl)phenyl)methanesulfonamide] displayed an IC50 of 0.001 to 0.1 µM.

With `Cc1ccccc1-n1c(=O)c2nccn2c2ccc(C(C)C)nc21` [Example 47, 7-isopropyl-5-(o-tolyl)imidazo[1,2-a]pyrido[2,3-e]pyrazin-4(5H)-one], the IC50 was more than 10 µM.

In turn, `Cc1nccnc1-n1c(=O)c2nccn2c2ccc(Cl)cc21` [Example 48, 7-chloro-5-(3-methylpyrazin-2-yl)imidazo[1,2-a]quinoxalin-4(5H)-one] yielded a half-maximal inhibitory concentration (IC50) of 0.1 to 1 µM.

Regarding `O=c1c2nccn2c2ccc(Cl)cc2n1-c1ccccc1OC(F)(F)F` [Example 50, 7-chloro-5-(2-(trifluoromethoxy)phenyl)imidazo[1,2-a]quinoxalin-4(5H)-one], the IC50 lay in the range of 1 to 10 µM.

On to `Cc1cccc(C)c1-n1c(=O)c2nccn2c2ccc(Cl)cc21` [Example 51, 7-chloro-5-(2,6-dimethylphenyl)imidazo[1,2-a]quinoxalin-4(5H)-one], for which the concentration for half-maximal inhibition (IC50) was more than 10 µM.

In turn, `Cc1cccnc1-n1c(=O)c2nccn2c2ccc(Cl)cc21` [Example 53, 7-chloro-5-(3-methylpyridin-2-yl)imidazo[1,2-a]quinoxalin-4(5H)-one] returned an IC50 of more than 10 µM.

In the case of `CC(=O)c1cnc2c(=O)n(-c3cccnc3C)c3cc(C(F)(F)F)ccc3n12` [Example 59, 1-acetyl-5-(2-methylpyridin-3-yl)-7-(trifluoromethyl)imidazo[1,2-a]quinoxalin-4(5H)-one], the half-inhibitory concentration (IC50) is 1 to 10 µM.

Molecule `Cc1ncccc1-n1c(=O)c2nc(CN3CCN(C)CC3)cn2c2ccc(Cl)cc21` [Example 61, 7-chloro-2-((4-methylpiperazin-1-yl)methyl)-5-(2-methylpyridin-3-yl)imidazo[1,2-a]quinoxalin-4(5H)-one] displayed an IC50 of more than 10 µM.

Take `Cc1ncccc1-n1c(=O)c2nc(CN3CCOCC3)cn2c2ccc(Cl)cc21` [Example 62, 7-chloro-5-(2-methylpyridin-3-yl)-2-(morpholinomethyl)imidazo[1,2-a]quinoxalin-4(5H)-one]: the IC50 lay in the range of 0.1 to 1 µM.

In turn, `Cc1ncccc1-n1c(=O)c2nc(CN3CCC4(CC3)COC4)cn2c2ccc(Cl)cc21` [Example 63, 2-((2-oxa-7-azaspiro[3.5]nonane-7-yl)methyl)-7-chloro-5-(2-methylpyridin-3-yl)imidazo[1,2-a]quinoxalin-4(5H)-one] gave an IC50 of more than 10 µM.

`COCCNCc1cn2c(n1)c(=O)n(-c1cccnc1C)c1cc(Cl)ccc12` [Example 64, 7-chloro-2-(((2-methoxyethyl)amino)methyl)-5-(2-methylpyridin-3-yl)imidazo[1,2-a]quinoxalin-4(5H)-one] displayed a half-maximal inhibitory concentration (IC50) of 0.1 to 1 µM.

Take `Cc1ccccc1-n1c(=O)c2nccn2c2cc(Br)c(Cl)cc21` [Example 72, 8-bromo-7-chloro-5-(o-tolyl)imidazo[1,2-a]quinoxalin-4(5H)-one]: the IC50 was 1 to 10 µM.

Molecule `Cc1ncccc1-n1c(=O)c2nccn2c2cc(C(F)(F)F)c(Br)cc21` [Example 76, 7-bromo-5-(2-methylpyridin-3-yl)-8-(trifluoromethyl)imidazo[1,2-a]quinoxalin-4(5H)-one] registered an IC50 of more than 10 µM.

Molecule `Cc1ncccc1-n1c(=O)c2nccn2c2cc(C(F)F)c(Br)cc21` [Example 82, 7-bromo-8-(difluoromethyl)-5-(2-methylpyridin-3-yl)imidazo[1,2-a]quinoxalin-4(5H)-one] had an IC50 of more than 10 µM.

`Cn1nccc1-n1c(=O)c2nccn2c2cc(Cl)c(Br)cc21` [Example 83, 7-bromo-8-chloro-5-(1-methyl-1H-pyrazol-5-yl)imidazo[1,2-a]quinoxalin-4(5H)-one]: the IC50 was in the range of 1 to 10 µM.

`Cc1cc2c(cc1Br)n(-c1cccnc1O)c(=O)c1nccn12` [Example 90, 7-bromo-5-(2-hydroxypyridin-3-yl)-8-methylimidazo[1,2-a]quinoxalin-4(5H)-one] returned a concentration for half-maximal inhibition (IC50) of more than 10 µM.

The molecule `Cc1ncccc1-n1c(=O)c2nccn2c2c(N3CCCC3)cc(Cl)cc21` [Example 104, 7-chloro-5-(2-methylpyridin-3-yl)-9-(pyrrolidine-1-yl)imidazo[1,2-a]quinoxalin-4(5H)-one] registered a half-inhibitory concentration (IC50) of more than 10 µM.

In the case of `Cc1ncccc1-n1c(=O)c2nccn2c2c(N(C)C)cc(Cl)cc21` [Example 106, 7-chloro-9-(dimethylamino)-5-(2-methylpyridin-3-yl)imidazo[1,2-a]quinoxalin-4(5H)-one], the concentration for half-maximal inhibition (IC50) is more than 10 µM.

The molecule `Cc1ncccc1-n1c(=O)c2nccn2c2c(OC(F)F)cc(C(F)(F)F)cc21` [Example 115, 9-(difluoromethoxy)-5-(2-methylpyridin-3-yl)-7-(trifluoromethyl)imidazo[1,2-a]quinoxalin-4(5H)-one] yielded an IC50 of 0.1 to 1 µM.

Regarding `Cc1ncccc1-n1c(=O)c2nccn2c2c(OCC(F)(F)F)cc(C(F)(F)F)cc21` [Example 117, 5-(2-methylpyridin-3-yl)-9-(2,2,2-trifluoroethoxy)-7-(trifluoromethyl)imidazo[1,2-a]quinoxalin-4(5H)-one], the IC50 is 0.001 to 0.1 µM.

These data come from EP4759814A1, “TRICYCLIC COMPOUND AND USE THEREOF AS MAT2A INHIBITOR” (SK Biopharmaceuticals Co., Ltd., priority 2023, dated 2025).
